Reference: publication PMC12365235, “Molecular mechanisms of thiazide-like diuretics-mediated inhibition of the human Na-Cl cotransporter” (Nature Communications, 2025)

Target: T1, hNCC(N149A) (Homo sapiens, UniProt P55017, N149A)
T1 construct: expressed in transfected cells
T1 sequence (P55017 1-1021 N149A): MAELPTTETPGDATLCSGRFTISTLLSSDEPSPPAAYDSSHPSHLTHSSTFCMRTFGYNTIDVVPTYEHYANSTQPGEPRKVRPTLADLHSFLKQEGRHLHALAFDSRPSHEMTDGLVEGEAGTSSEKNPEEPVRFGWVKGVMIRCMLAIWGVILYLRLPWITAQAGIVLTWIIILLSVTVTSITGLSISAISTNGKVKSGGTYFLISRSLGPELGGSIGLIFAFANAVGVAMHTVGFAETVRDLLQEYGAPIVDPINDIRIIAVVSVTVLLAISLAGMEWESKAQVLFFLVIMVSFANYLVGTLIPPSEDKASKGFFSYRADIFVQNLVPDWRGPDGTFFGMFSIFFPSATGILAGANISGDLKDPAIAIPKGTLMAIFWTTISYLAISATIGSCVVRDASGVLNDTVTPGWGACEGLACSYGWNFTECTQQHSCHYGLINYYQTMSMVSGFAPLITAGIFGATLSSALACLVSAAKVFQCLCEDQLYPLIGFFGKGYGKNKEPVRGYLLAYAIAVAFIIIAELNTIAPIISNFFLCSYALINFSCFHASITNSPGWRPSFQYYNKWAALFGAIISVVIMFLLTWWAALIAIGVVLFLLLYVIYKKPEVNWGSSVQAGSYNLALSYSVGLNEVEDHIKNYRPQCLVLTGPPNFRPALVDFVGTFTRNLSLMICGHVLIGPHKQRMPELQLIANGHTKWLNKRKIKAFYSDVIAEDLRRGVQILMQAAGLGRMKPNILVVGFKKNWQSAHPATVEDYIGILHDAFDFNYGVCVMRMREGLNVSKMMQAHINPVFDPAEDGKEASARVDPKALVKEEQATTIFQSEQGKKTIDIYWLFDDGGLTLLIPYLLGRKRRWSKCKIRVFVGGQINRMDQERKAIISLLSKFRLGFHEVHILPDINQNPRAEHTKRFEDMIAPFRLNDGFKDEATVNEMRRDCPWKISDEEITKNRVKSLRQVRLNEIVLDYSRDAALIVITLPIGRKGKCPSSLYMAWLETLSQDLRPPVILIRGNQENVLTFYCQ
Assay: 125I- uptake assay, hNCC(N149A) variant
Type: cell-based
Settings: N149A substitution; for IC50: iodide uptake
Protocol: HEK293S cell lines, cultured in 293 Freestyle medium (Life Technologies; plus 10% fetal bovine serum), stably expressing hNCC and its variants were generated following published protocols. Cells were transfected using Lipofectamine 3000 (Invitrogen) with a pSBbi-RP-based plasmid containing hNCC or its variants and the SB100X vector. Puromycin (2 μg/mL; Gemini Bio-Products) was used for selection of stable cell lines.
To prepare for the uptake experiment, cells were plated at 0.5 × 10^6 cells/well in 24-well plates one day in advance. To activate NCC, cells were treated with a chloride-free hypotonic solution composed of 67.5 mM sodium-, 2.5 mM potassium-, 0.25 mM magnesium-, and 0.25 mM calcium-gluconate, as well as 7.5 mM HEPES pH 7.4 (buffered using Tris) at 37 °C for 10 min[72]. After the activation step, the experiments were carried out at room temperature. Ten minutes before the start of ^125I^− uptake, 70 μM Bumetanide (Thermo Scientific Chemicals) and 100 μM 4,4′-diisothiocyanatostilbene-2,2′-disulfonic acid (DIDS; Sigma) were added to suppress background iodide uptake activity. Indicated thiazide diuretics were also added to the indicated concentrations 10 min before the start of ^125I^− uptake. The original buffer was switched to an uptake buffer composed of 135 mM Na-gluconate, 5 mM K-gluconate, 1 mM Mg-gluconate, 1 mM Ca-gluconate, 70 μM bumetanide, 100 μM DIDS, 1 mM NaI, 0.25 μCi/ml Na^125I (American Radiolabeled Chemicals, Inc.), and 15 mM HEPES pH 7.4 (buffered using Tris), in the presence or absence of thiazide diuretics to initiate ^125I^− uptake. The ^125I^− uptake process lasted 1 h and was stopped by two rapid washes using ice-cold 110 mM MgCl2. Cells lysed using 1% sodium dodecyl sulfate (SDS) were analyzed by scintillation counting.
To calculate the fold change of the half-maximal inhibitory concentration (IC50) between hNCC(WT) and different hNCC variants, individual dose-response curves were normalized first using the smallest mean and the value of the lowest concentration as 0% and 100%, respectively. The normalized data were then fitted using the “EC50 shift” nonlinear regression in GraphPad Prism 10 with the shared EC50Control assigned to be the IC50 of hNCC(WT). The following constraints were used in the EC50 shift analysis. The EC50Control was set to be shared across all curves under analysis and constrained to be greater than 0. The EC50Ratio was constrained to be greater than 0. The bottom, top, and HillSlope were constrained to be 0, 100, and −1, respectively. For Fig. 1f, g and Supplementary Fig. 2d, GraphPad Prism 10 was used to perform curve fitting and IC50 calculation for normalized data using y = 100/(1 + (x/IC50)).

| SMILES | fold less sensitive than hNCC(WT) | IC50 [µM] |
| --- | --- | --- |
| NS(=O)(=O)c1cc(C2(O)NC(=O)c3ccccc32)ccc1Cl (stereo not shown) [chlorthalidone] | ~95 fold | 2.2 |
| CC1Cc2ccccc2N1NC(=O)c1ccc(Cl)c(S(N)(=O)=O)c1 (stereo not shown) [indapamide] | approximately 27 fold | 0.34 |
